Tests used:
human delta receptor = human delta receptor (Homo sapiens, UniProt P41143); details: Ferrari et al. 2017; cited from earlier work
[1] = test system: rats (monosodium-iodoacetate model of osteoarthritis); assay: monosodium-iodoacetate model of osteoarthritis: locomotor activity (total distance travelled)
[2] = test system: rats (monosodium-iodoacetate model of osteoarthritis); assay: monosodium-iodoacetate model of osteoarthritis: lameness (dynamic weight bearing); details: for lameness (% RL-% RR), early and late phase: intrathecal, 1 hr post-drug, vs intrathecal saline
[3] = systemically administered, Hirao et al. 2008, cited from earlier work
[4] = test system: rats (acute thermal nociception); assay: tail flick assay, intrathecal administration; format: in vivo, rat; details: intrathecal 0.1, 1 or 10 μg on successive days, 1 hr post-drug, vs baseline and saline
Experimental: As a general matter, rats underwent implantation of a catheter for drug delivery into the lumbo-thoracic intrathecal space. A polyurethane catheter was inserted through an incision in the atlanto-occipital membrane and passed caudally to the lumbar level. The distal part of the catheter was exteriorized and connected to a Pinport access port (Instech). Each rat received a standard protocol of anesthesia and antibiotics. Patency checks of the catheter system were performed once weekly following surgeries using 0.02 mL of physiological saline continuing until completion of the dosing period. The Pinport was wiped with alcohol prior to any injection. A minimum of 9-10 days was allowed between surgery and the first dosing in order for the rats to recover fully from surgical trauma. Intrathecal injection of test items always involved the following procedure: test items were administered by slow bolus injection via the Pinport connected to the intrathecal catheter. The dose volume for each animal was fixed at 10 μL and injected slowly over duration of ˜5 minutes. Following dose administration, the catheter was flushed with 20 μL of physiological saline.
A Tail-Flick Analgesia Meter (Columbus Instruments) was used. […] Afterwards, baseline tail-flick latency was measured using a lamp intensity adjusted such that the baseline tail-flick latencies were in the 6-8 second range. […]

Sequence of human delta receptor (P41143 whole entry): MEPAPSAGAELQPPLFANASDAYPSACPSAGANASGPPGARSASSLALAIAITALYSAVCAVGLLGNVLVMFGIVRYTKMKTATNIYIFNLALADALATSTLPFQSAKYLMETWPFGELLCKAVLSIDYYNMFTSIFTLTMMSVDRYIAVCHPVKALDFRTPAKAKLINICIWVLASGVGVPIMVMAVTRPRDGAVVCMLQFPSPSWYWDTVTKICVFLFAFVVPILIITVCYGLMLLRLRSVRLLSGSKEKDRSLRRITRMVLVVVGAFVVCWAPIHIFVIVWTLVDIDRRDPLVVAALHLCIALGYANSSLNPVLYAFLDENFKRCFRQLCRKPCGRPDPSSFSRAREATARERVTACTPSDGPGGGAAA

Structure (SMILES)	activation of the human delta receptor (human delta receptor)	locomotor activity (total distance travelled), early phase ([1]; intrathecal 1 μg, vs intrathecal vehicle)	locomotor activity (total distance travelled), late phase ([1]; intrathecal 0.1, 1 or 10 μg, 0.1 and 10 μg reached statistical significance vs vehicle)	lameness, early phase ([2]; intrathecal 1 μg, Days 2-4, vs saline)	lameness, late phase, dose-response ([2]; intrathecal 0.1, 1 or 10 μg, Days 22-24)	lameness, late phase, 1 and 10 μg ([2]; intrathecal 1 and 10 μg, Days 22-24, vs saline)	lameness (% RL-% RR), early and late phase [2]	anxiolytic effects [3]	inhibition of memory or motor function [3]	sedative side effects ([3]; appear only at much higher doses than the effective anxiolytic dose range)	tail-flick latency [4]	lameness, last two days of the late phase ([2]; intrathecal 15 μg, vs saline)
CC1(N2CCC(n3c([C@@H]4CCCNC4)nc4ccccc43)CC2)CCCCCCC1 [MCOPPB, 1-[1-(1-methylcyclooctyl)-4-piperidinyl]-2-[(3R)-3-piperidinyl]-1H-benzimidazole]	only a small amount	did not change locomotor activity	appeared to restore locomotor activity to the level displayed by both treatment groups during the early phase	sufficient to reduce lameness significantly	dose-related effects	significantly reduced lameness	significantly reduced lameness levels	potent anxiolytic effects	no inhibition of memory or motor function	only slight sedative side effects	significantly, and dose-dependently, increased TF latencies	
CN1CC[C@]23c4c5ccc(O)c4O[C@H]2[C@@H](O)C=C[C@H]3[C@H]1C5.O=S(=O)(O)O [morphine sulfate, reference compound]							significantly reduced lameness levels					statistical significance was not quite achieved
